Experimental data as given in patent US20180111913A1, “SUBSTITUTED BENZOFURAN DERIVATIVES AS NOVEL ANTIMYCOBACTERIAL AGENTS” (priority 2015, published 2018).
Converted amounts (≈) assume the structure as drawn. Like-named read-outs stand apart in the source and are kept apart here.

Experiments:
[1] = molecular target: Mtb Pks13-TE domain (wild-type) (Mycobacterium tuberculosis, UniProt I6X8D2); assay: biochemical; format: biochemical
Mtb strain mc^27000 = assay: microbe, parasite or virus in culture; format: cell-based, Mycobacterium tuberculosis
[2] = system: human dermal fibroblast (HDF) cells; details: for Non-Toxic Concentration: human, 48 h
[3] = Mtb Pks13-TE domain, mean ± s.d. of triplicates, read-out: IC50
[4] = Pks13-TE, 20 μM 4-MUH, read-out: IC50
[5] = Mtb mc^27000, liquid medium, 96-well plates
[6] = […], mean ± s.d. of triplicates, NI: no inhibition
[7] = Mtb mc^27000, liquid medium, 96-well plates, read-out: MIC
[8] = Mycobacterium tuberculosis, Mtb mc^27000, liquid medium, 96-well plates, read-out: MIC
[9] = Mycobacterium tuberculosis, […], mean ± s.d. of triplicates, NI: no inhibition, read-out: MIC
[10] = Pks13 enzyme inhibition, read-out: Pks13 IC50
[11] = Mycobacterium tuberculosis, read-out: Pks13 MIC
[12] = HDF cell survival relative to DMSO-only control at the first (or only) Non-Toxic Concentration value
[13] = HDF cell survival relative to DMSO-only control at the second Non-Toxic Concentration value

Mtb Pks13-TE domain (wild-type), sequence (I6X8D2 1451-1733): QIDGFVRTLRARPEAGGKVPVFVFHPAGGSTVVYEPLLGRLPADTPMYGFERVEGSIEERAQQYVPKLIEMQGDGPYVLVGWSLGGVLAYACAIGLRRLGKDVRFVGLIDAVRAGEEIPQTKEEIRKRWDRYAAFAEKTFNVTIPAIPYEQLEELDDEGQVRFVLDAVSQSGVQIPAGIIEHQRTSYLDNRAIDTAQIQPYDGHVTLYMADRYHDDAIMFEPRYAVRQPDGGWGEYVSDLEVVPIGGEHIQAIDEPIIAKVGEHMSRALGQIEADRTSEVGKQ

| SMILES | IC50 [1, 4] [nM] | MIC (Mtb strain mc^27000; [8]) [µM] | IC50 [1, 10] [nM] | MIC (Mtb strain mc^27000; [11]) [µM] | Survival vs. Control [2, 12] [%] | Non-Toxic Concentration [2] [µM] | further results |
| --- | --- | --- | --- | --- | --- | --- | --- |
| CCOC(=O)c1c(-c2ccccc2)oc2ccc(O)c(CN3CCCC(C)C3)c12 (stereo not shown) [compound 2] | 120 |  |  |  |  |  | IC50 [1, 3]: 120 ± 20 nM; higher MIC compared to the test compound (Mtb strain mc^27000): ~2 fold; MIC (Mtb strain mc^27000; [5]): 4.4 ± 0.2 µM (≈ 1.73 µg/mL); MIC (Mtb strain mc^27000; [6]): 4.4 ± 0.2 µM (≈ 1.73 µg/mL); growth inhibition in HDF cells relative to DMSO only control ([2]; up to 40 (unit not given)): did not show any growth inhibition |
| CCOC(=O)c1c(-c2ccccc2)oc2ccc(O)c(CN3CCCC3)c12 [compound 3] | 240 ± 20 |  |  |  |  |  | IC50 [1, 3]: 240 ± 20 nM; higher MIC compared to the test compound (Mtb strain mc^27000): ~2 fold; MIC (Mtb strain mc^27000; [7]): 4.1 µM (≈ 1.5 µg/mL); MIC (Mtb strain mc^27000; [6]): 4.1 ± 0.1 µM (≈ 1.5 µg/mL); IC50 ([2]; read-out: half-maximum inhibitory concentration in HDF cells, HDF cells, resazurin): > 15000 nM |
| CCOC(=O)c1c(-c2ccccc2)oc2ccc(O)c(CN3CCCCCC3)c12 [compound 4] | 280 ± 30 | 4.6 ± 0.3 (≈ 1.81 µg/mL) |  |  |  |  | IC50 [1, 3]: 280 ± 30 nM; higher MIC compared to the test compound (Mtb strain mc^27000): ~2 fold; MIC (Mtb strain mc^27000; [9]): 4.6 ± 0.03 µM (≈ 1.81 µg/mL); growth inhibition in HDF cells relative to DMSO only control [2]: did not show any growth inhibition |
| CCOC(=O)c1c(-c2ccccc2)oc2ccc(O)c(CN3CCOCC3)c12 [compound 5] | 710 |  |  |  |  |  | IC50 [1, 3]: 710 ± 50 nM; IC50 value lower than compound F against Pks13-TE ([1]; relative to compound F): > 2 fold; loss of inhibitory activity / higher IC50 against Pks13-TE compared to the test compound ([1]; relative to test compound): ~3 fold; higher MIC compared to the test compound (Mtb strain mc^27000): 6 fold; MIC (Mtb strain mc^27000; [5]): 13.3 ± 1.6 µM (≈ 5.07 µg/mL); MIC (Mtb strain mc^27000; [6]): 13.3 ± 1.6 µM (≈ 5.07 µg/mL); MIC higher than compound F in whole cell testing (Mtb strain mc^27000; relative to compound F): ~2 fold; growth inhibition in HDF cells relative to DMSO only control ([2]; up to 40 (unit not given)): did not show any growth inhibition |
| Oc1ccc2[nH]c(-c3ccccc3)nc2c1CN1CCCCC1 [compound 8] | 6800 | 22 (≈ 6.76 µg/mL) | 6800 | 22 (≈ 6.76 µg/mL) | 78 |  | Survival vs. Control [2, 13]: 94% |
| CCOC(=O)c1c(-c2ccccc2)oc2ccc(O)c(CN3CCCCC3)c12 [compound 13] | 300 | 0.4 (≈ 0.152 µg/mL) | 260 | 0.4 (≈ 0.152 µg/mL) | 105 | 50 | MIC (Mtb strain mc^27000; [9]): 0.4 µM (≈ 0.152 µg/mL); growth inhibition in HDF cells relative to DMSO only control [2]: did not show any growth inhibition |
| CCOC(=O)c1c(-c2ccc(OC)cc2)oc2ccc(O)c(CN3CCCCC3)c12 [compound 21] | 290 | 2.6 (≈ 1.06 µg/mL) | 290 | 2.6 (≈ 1.06 µg/mL) | 104 | 50 |  |
| CCOC(=O)c1c(-c2ccccc2)oc2cc(N)c(O)c(CN3CCCCC3)c12 [compound 27] | 370 | 8 (≈ 3.16 µg/mL) | 370 | 8 (≈ 3.16 µg/mL) | 77 |  | Survival vs. Control [2, 13]: 114% |
| CNC(=O)c1c(-c2ccc(F)cc2)oc2ccc(O)c(CN3CCCCC3)c12 [compound 29] | 300 | 4.5 (≈ 1.72 µg/mL) | 300 | 4.5 (≈ 1.72 µg/mL) | 89 |  | Survival vs. Control [2, 13]: 112% |
| CCOC(=O)c1c(-c2ccccc2)oc2cc(N)cc(CN3CCCCC3)c12 [compound 34] | 4500 | 9.2 (≈ 3.48 µg/mL) | 4500 | 9.2 (≈ 3.48 µg/mL) | 82 | 100 |  |
| CCOC(=O)c1c(-c2ccccc2)oc2cc(O)cc(CN3CCCCC3)c12 [compound 38] |  | 6.7 (≈ 2.54 µg/mL) | 450 | 6.7 (≈ 2.54 µg/mL) | 111 | 100 |  |
| CC(C)(C)OC(=O)N1CCN(C(=O)c2c(-c3ccccc3)oc3ccc(O)c(CN4CCCCC4)c23)CC1 [compound 39] | 660 | 2.1 (≈ 1.09 µg/mL) | 660 | 2.1 (≈ 1.09 µg/mL) | 101 | 100 |  |
| CNC(=O)c1c(-c2ccccc2)oc2cc(O)cc(CN3CCCCC3)c12 [compound 40] | 600 | 20 (≈ 7.29 µg/mL) | 600 | 20 (≈ 7.29 µg/mL) | 101 | 100 |  |
| O=C(c1c(-c2ccccc2)oc2ccc(O)c(CN3CCCCC3)c12)N1CCNCC1 [compound 41] | 440 | 20 (≈ 8.39 µg/mL) | 740 | 3.1 (≈ 1.3 µg/mL) | 100 | 100 |  |
| O=C(c1c(-c2ccccc2)oc2ccc(O)c(CN3CCCCC3)c12)N1CCCCC1 [compound 42] | 740 |  | 320 | > 10 | 89 | 100 | MIC (Mtb strain mc^27000; [7]): 3.1 µM (≈ 1.3 µg/mL) |
| CC(=O)NCCNC(=O)c1c(-c2ccccc2)oc2ccc(O)c(CN3CCCCC3)c12 [compound 44] | 500 | > 40 | 500 | > 40 | 104 | 50 |  |
| CCOC(=O)c1c(-c2ccc(O)cc2)oc2cc(O)cc(CN3CCCCC3)c12 [compound 45] | 440 | 1.1 (≈ 0.435 µg/mL) | 440 | 1.1 (≈ 0.435 µg/mL) | 89 | 100 |  |

| SMILES | IC50 [1, 4] [nM] | MIC (Mtb strain mc^27000; [8]) [µM] | IC50 [1, 10] [nM] | MIC (Mtb strain mc^27000; [11]) [µM] | Survival vs. Control [2, 12] [%] | Non-Toxic Concentration [2] [µM] | further results |
| --- | --- | --- | --- | --- | --- | --- | --- |
| CCOC(=O)c1c(-c2ccc(O)nc2)oc2ccc(O)c(CN3CCCCC3)c12 [compound 58] |  | 4 (≈ 1.59 µg/mL) | 360 | 4 (≈ 1.59 µg/mL) | 95 | 50 |  |
| CNC(=O)c1c(-c2ccc(O)c(F)c2)oc2ccc(O)c(CN3CCCCC3)c12 [compound 61] |  | 0.5 (≈ 0.199 µg/mL) | 330 | 0.5 (≈ 0.199 µg/mL) | 94 | 50 |  |
| CCOC(=O)c1c(-c2ccc(C#N)cc2)oc2ccc(O)c(CN3CCCCC3)c12 [compound 62] | 270 | 1.5 (≈ 0.607 µg/mL) | 270 | 1.5 (≈ 0.607 µg/mL) | 90 | 6.25 |  |
| CCOC(=O)c1c(-c2cc(F)c(O)c(F)c2)oc2ccc(O)c(CN3CCCCC3)c12 [compound 63] | 500 | 7 (≈ 3.02 µg/mL) | 500 | 7 (≈ 3.02 µg/mL) | 99 | 25 |  |
| CNC(=O)c1c(-c2cc(F)c(O)c(F)c2)oc2ccc(O)c(CN3CCCCC3)c12 [compound 64] | 1500 | > 40 | 1500 to 1900 |  | 94 | 100 | Pks13 MIC (Mtb strain mc^27000; whole cell, mc^27000 Mtb, NI at 40 μM): NI (40 μM) |
| OCc1c(-c2ccccc2)oc2ccc(O)c(CN3CCCCC3)c12 [compound 65] | 240 | 12.5 (≈ 4.22 µg/mL) | 240 | 6 to 12.5 (≈ 2.02 to 4.22 µg/mL) | 95 | 25 |  |
| COC(=O)c1c(-c2ccccc2)oc2cc(O)cc(CNC(C)C)c12 [compound 67] |  | 9 (≈ 3.05 µg/mL) | 700 | 9 (≈ 3.05 µg/mL) | 97 | 25 |  |
| CCOC(=O)c1c(-c2ccccc2)oc2cc(O)cc(CN3CCC(C#N)CC3)c12 [compound 69] | 1600 | 20 (≈ 8.09 µg/mL) | 1600 | 20 (≈ 8.09 µg/mL) | 93 | 50 |  |
| CCOC(=O)c1c(-c2ccccc2)oc2cc(O)cc(CN3CCC(NC(C)=O)CC3)c12 [compound 70] | 6100 | > 40 | 6100 | > 40 | 91 | 50 |  |
| CCOC(=O)c1c(-c2ccccc2)oc2cc(OC)cc(CNC(C)C)c12 [compound 72] | > 10000 | 7.4 (≈ 2.72 µg/mL) | > 10000 | 7.4 (≈ 2.72 µg/mL) | 91 | 3.125 |  |
| CCOC(=O)c1c(-c2ccc(F)cc2)oc2cc(O)cc(CCNC(C)C)c12 [compound 73] | 2100 | 2.5 (≈ 0.964 µg/mL) | 1500 to 2100 | 2.5 (≈ 0.964 µg/mL) | 97 | 12.5 |  |
| CCOC(=O)c1c(-c2ccc(F)cc2)oc2cc(O)cc(CCNS(C)(=O)=O)c12 [compound 74] |  |  | 20000 |  | 88 | 25 |  |
| CNC(=O)c1c(-c2ccc(O)nc2)oc2cc(O)cc(CN3CCCCC3)c12 [compound 88] |  | 2.8 (≈ 1.07 µg/mL) | 2800 |  | 96 | 50 |  |
| CCOC(=O)c1c(-c2ccccc2)oc2ccc(O)c(CCN3CCCC3)c12 [compound 102] | 2500 | 0.7 (≈ 0.266 µg/mL) | 700 |  | 91 | 1.56 |  |
| CCOC(=O)c1c(-c2ccccc2)oc2ccc(O)c(CCN3CCCC3C(=O)O)c12 (stereo not shown) [compound 244] | > 40000 | 20 to 40 (≈ 8.47 to 16.9 µg/mL) |  |  |  |  |  |
| CCOC(=O)c1c(-c2ccccc2)oc2ccc(O)c(CCN[C@@H](Cc3c[nH]cn3)C(=O)O)c12 [compound 245] | 2700 | > 40 |  |  |  |  |  |
| CNC(=O)c1c(-c2ccc(F)cc2)oc2cc(O)cc(CCN[C@H](CO)Cc3cnc[nH]3)c12 [compound 261] | 5000 | 5 (≈ 2.26 µg/mL) |  |  |  |  |  |
